Reference: BindingDB's records for doi:10.1111/j.1747-0285.2012.01371.x (Korea Research Institute of Chemical Technology, 2012)

Target: 5-lipoxygenase (Rattus norvegicus)
Assay: 5-LOX enzyme assay was carried out with some modifications of ferric oxidation of xylenol orange (FOX) assay, which is based on the complex formation of Fe3+/ xylenol orange with absorption at visible light.
Settings: pH 7.4

Row | IC50 [nM] | Structure (SMILES)
1 | 92 | Nc1ccc(Nc2nc(-c3ccc([N+](=O)[O-])cc3)cs2)cc1 [N-aryl-4-aryl-1,3-thiazole-2-amine, 28]
2 | 82 | Oc1ccc(Nc2nc(-c3ccc(Br)cc3)cs2)cc1 [N-aryl-4-aryl-1,3-thiazole-2-amine, 4]
3 | 60 | Nc1ccc(Nc2nc(-c3cc(Cl)ccc3Cl)cs2)cc1 [N-aryl-4-aryl-1,3-thiazole-2-amine, 31]
4 | 65 | Oc1ccc(Nc2nc(-c3cccc(F)c3)cs2)cc1 [N-aryl-4-aryl-1,3-thiazole-2-amine, 8]
5 | 146 | Oc1c(Cl)cc(Nc2nc(-c3ccc(Cl)cc3)cs2)cc1Cl [N-aryl-4-aryl-1,3-thiazole-2-amine, 13]
6 | 70 | Nc1ccc(Nc2nc(-c3ccc(F)cc3F)cs2)cc1 [N-aryl-4-aryl-1,3-thiazole-2-amine, 32]
7 | 201 | Nc1ccc(Nc2nc(-c3ccc(Br)cc3)cs2)cc1 [N-aryl-4-aryl-1,3-thiazole-2-amine, 26]
8 | 93 | Oc1c(Cl)cc(Nc2nc(-c3ccc(F)cc3)cs2)cc1Cl [N-aryl-4-aryl-1,3-thiazole-2-amine, 16]
9 | 120 | Nc1ccc(Nc2nc(-c3ccccc3)cs2)cc1 [N-aryl-4-aryl-1,3-thiazole-2-amine, 24]
10 | 63 | Cc1cc(Nc2nc(-c3ccc(F)cc3)cs2)cc(Cl)c1O [N-aryl-4-aryl-1,3-thiazole-2-amine, 15]
11 | 85 | Oc1ccc(Nc2nc(-c3ccc(F)cc3F)cs2)cc1 [N-aryl-4-aryl-1,3-thiazole-2-amine, 12]
12 | 92 | Oc1ccc(Nc2nc(-c3cc(Cl)ccc3Cl)cs2)cc1 [N-aryl-4-aryl-1,3-thiazole-2-amine, 11]
13 | 105 | Nc1ccc(Nc2nc(-c3ccc(F)cc3)cs2)cc1 [N-aryl-4-aryl-1,3-thiazole-2-amine, 25]
14 | 81 | Oc1ccc(Nc2nc(-c3ccccc3F)cs2)cc1 [N-aryl-4-aryl-1,3-thiazole-2-amine, 7]
15 | 25 | O=[N+]([O-])c1ccc(-c2csc(Nc3ccc(O)cc3)n2)cc1 [N-aryl-4-aryl-1,3-thiazole-2-amine, 6]
16 | 104 | Cc1cc(Nc2nc(-c3ccc(F)cc3)cs2)c(C)cc1O [N-aryl-4-aryl-1,3-thiazole-2-amine, 17]
17 | 421 | Nc1ccccc1Nc1nc(-c2ccc(Cl)cc2)cs1 [N-aryl-4-aryl-1,3-thiazole-2-amine, 29]
18 | 127 | Cc1cc(Nc2nc(-c3ccc(Cl)cc3)cs2)cc(C)c1O [N-aryl-4-aryl-1,3-thiazole-2-amine, 14]
